The values below come from patent US20050245465A1, “Compounds for treating Alzheimer's disease and for inhibiting beta-amyloid peptitde production” (priority 2004, published 2005).

Experiment [1] concerns CHO cells expressing human APP. Nature of the experiment: Secreted Aβ40/Aβ42 ELISA in medium of CHO-APP cells. The class given is cell-based, Chinese hamster. Also noted: key to Aβ42-lowering activity: Aβ42-lowering activity (“Yes”); no profound effects (“No”); non-determined (“ND”); Ginsenosides that affected cell viability are indicated as “Cytotoxic.”. The conditions noted are these: for Aβ42-lowering activity: Tables 1-3; for inhibitory effects on Aβ40 and Aβ42 production: 8 hours of incubation, ginsenosides from white ginseng. Here is the method:
The CHO cells were treated with the indicated compounds (at 50 μg/ml) for 8 hrs. Aβ42 levels in the medium were measured by ELISA and normalized to intracellular full-length APP.
The potential effects of ginsenosides and their analogues in treating AD were examined. First, a number of ginsenosides were screened based on their effects on Aβ generation. The effects of various ginsenosides on Aβ (e.g., Aβ40 and Aβ42) production was initially accessed by incubating the Chinese hamster ovary (CHO) cells expressing human APP(CHO-APP cells) with each ginsenoside purified from unprocessed ginseng (known as “white ginseng”). These representative ginsenosides included Rb1, Rb2, Rc, Rd, Re, Re, Rg1 and Rg2 and differ in their side chains and sugar moieties.
After 8 hours of incubation, the media were collected and the levels of secreted Aβ40 and Aβ42 were determined by ELISA.
Steaming ginseng at high temperature gave rise to additional ginsenosides with enhanced pharmacological activity, including (20S)Rg3, Rk1 and Rg5 (22-25). Next, the effects of these heat-processing derived ginsenosides (e.g., (20S)Rg3, Rh1, Rh2, Rk1, Rg6, Rg5) on Aβ40 and Aβ42 generation were tested. […] In contrast, Aβ42 levels were not affected by (20R)Rg3, Rh1, and Rg6. Aβ40 levels were not changed by treatment with any of the ginsenosides tested. The potency of Aβ42-lowering activity was highest with Rk1 and (20S)Rg3. […] The secretion of Aβ40 was affected by treatment with Rk1 only at very high concentration (˜100 μM) and cell viability was not affected by treatment of Rk1 under these conditions (up to 100 μM, 8 hour treatment; data not shown). […] Overnight treatment with Rgk351, Rk1, and Rg5 also reduce Aβ42 production in CHO-APP cells (FIG. 12B). […] These studies provide a structure-activity relationship between the chemical structures of ginsenosides and Aβ42-lowering activity, further providing the basis for designing additional Aβ42-lowering analogues as well as for defining a class of compounds that harbor Aβ42-lowering activity.
A general note: ELISA stands for enzyme-linked immunosorbent assay.

Experiment [2] concerns Neuro2a cells expressing the human Swedish mutant form of APP. The experiment in a line: Aβ generation in Neuro2a-SW cells. The conditions noted are these: for levels of Aβ42 / production of Aβ42: Neuro2a-SW, also CHO cells expressing wild-type human APP. The class given is cell-based, mouse. An excerpt:
FIG. 16 depicts the effects of two major metabolites of ginsenosides, including 20(S)-protopanaxatriol (PPT) and 20(S)-protopanaxadiol (PPD) on Aβ42 generation. 20(S)-panaxatriol (PT) and 20(S)-panaxadiol (PD) are the artificial derivatives of PPT and PPPD, respectively.
Ginsenosides are metabolized by human intestinal bacteria after oral administration of ginseng extract (Kobayashi K., et al., Metabolism of ginsenoside by human intestinal bacteria [II] Ginseng Review 1994; 18: 10-14; Hasegawa H., et al., Main ginseng saponin metabolites formed by intestinal bacteria. Planta Med. 1996; 62: 453-457.). Therefore, the effects of two major metabolites of ginsenosides, including 20(S)-protopanaxatriol (PPT) and 20(S)-protopanaxadiol (PPD) on Aβ42 generation were tested. 20(S)-panaxatriol (PT) and 20(S)-panaxadiol (PD) are the artificial derivatives of PPT and PPPD, respectively.

Another experiment has as its system CHO-APP/PS1 cells. The experiment in a line: Secreted Aβ40/Aβ42 ELISA in CHO-APP/PS1 cells. The conditions noted are these: 50 μM, 8 hrs. The class given is cell-based, Chinese hamster. Here is the method: FIG. 10 depicts the effects of native ginsenosides on Aβ42 production. CHO cells stably transfected with human APP695 together with either wild-type (A, CHO-APP/PS1 cells) or ΔE9 FAD mutant (B, CHO-APP/ΔE9PS1 cells) forms of PS1 were used. Cells were treated with the indicated compounds (at 50 μM) for 8 hrs. Levels of secreted Aβ40 and Aβ42 in the medium were determined by ELISA and normalized to intracellular full-length APP. In CHO-APP/PS1 cells, average Aβ amounts in control samples were 320 pM for Aβ40 and 79 pM for Aβ42. The relative levels of Aβ and Aβ42 were normalized to values obtained from non-treated and vehicle-treated cells and are shown as % to control+s.d.). One of three representative experiments are shown.
CHO-APP/PS1 (A) and CHO-APP/ΔE9PS1 (B) cells were treated with the indicated compounds at 50 μM for 8 hrs and the levels of secreted Aβ40 and Aβ42 were determined as described in FIG. 1. […] The PS1-ΔE9 FAD mutation diminished the Aβ42 response to Rk1 treatment (B).

The subject of experiment [3] is γ-secretase. The experiment in a line: Cell-free generation of intracellular domains (AICD, NICD, p75-ICD) in membrane fractions of 293 cells. The class given is biochemical. The conditions noted are these: membrane fractions from 293 cells overexpressing APP, Notch-ΔE or p75-ΔE. Here is the method: Membrane fractions isolated from 293 cells overexpressing either APP (A), Notch-ΔE (B) or p75-ΔE (C) and incubated in the presence of indicated compounds: Compound E (CpdE, general γ-secretase inhibitor), Rgk351, Rk1 and sulindac sulfide (SS).
Since the effect of Rk1 was rather selective to Aβ42 (but not Aβ40) in a cell-based assay, the question of whether Rk1 affects other γ-secretase-mediated cleavage events, including the generation of AICD resulted from a transmembrane cleavage of APP distal from either Aβ40 or Aβ42 site, and γ-secretase-mediated intramembrane cleavage of Notch1 or p75 neurotrophin receptor (p75NTR) to yield Notch1 or p75NTR intracellular domains (NICD or p75-ICD, respectively) was tested. The cell-free generation of AICD, NICD and p75-ICD was not affected by incubation with Rgk351 or Rk1 (FIG. 5).

The test system of experiment [4] is γ-secretase. Nature of the experiment: Cell-free γ-secretase assay (CHAPSO-solubilized membrane fractions, Aβ ELISA). The class given is biochemical. The conditions noted are these: cell-free γ-secretase assay, partially purified γ-secretase complex; 100 μM. Here is the method:
(A) CHAPSO-solubilized membrane fractions were incubated with recombinant γ-secretase substrates together with the indicated compounds (at 100 μM) and the levels of Aβ42 and Aβ40 were determined by ELISA as described (27-29). (B) Dose-response of Aβ40 and Aβ42-lowering activity of Rk1 and (20S)Rg3 in a cell-free γ-secretase assay.
Next, the inhibitory effects of Rk1 and (20S)Rg3 on Aβ generation in an in vitro γ-secretase assay was studied. […] In contrast, naproxen, an NSAID without Aβ42-lowering activity, had no effects on Aβ42 production (FIG. 15A).

Entries after “also recorded” stand apart in the source; their conditions may differ.

`CC(C)=CCCC(C)(O)[C@H]1CC[C@]2(C)[C@@H]1[C@H](O)C[C@@H]1[C@@]3(C)CC[C@H](O)C(C)(C)[C@@H]3CC[C@]12C` (stereo in doubt) [PPD, Protopanaxadiol]: the Aβ42-lowering activity entry in experiment [1] was “No”. Besides, the “inhibitory effects on Aβ40 or Aβ42 generation” value in experiment [2] was “did not confer any inhibitory effects”.
Consider `CC(C)=CCC[C@@](C)(O)[C@H]1CC[C@]2(C)[C@@H]1[C@H](O)C[C@@H]1[C@@]3(C)CC[C@H](O[C@@H]4O[C@H](CO)[C@@H](O)[C@H](O)[C@H]4O[C@@H]4O[C@H](CO)[C@@H](O)[C@H](O)[C@H]4O)C(C)(C)[C@@H]3CC[C@]12C` [(20R)Rg3], for which the “generation of Aβ42 (Aβ42 levels in the medium, ELISA, normalized to intracellular full-length APP)” value in experiment [1] (CHO cells stably transfected with human APP695, 50 μg/ml, 8 hrs) is listed as “reduce”. Also, the Aβ42-lowering activity entry in experiment [1] is listed as “Yes”. The “secretion of Aβ42 (initial screening)” value in experiment [1] (heat-processing derived ginsenosides) is reported as “not affected”. Also, the “potency of Aβ42-reducing activity (order)” value in the experiment with CHO-APP/PS1 cells is on record as “Rk1>/=(20S)Rg3>Rg5>(20R)Rg3”.
For `C[C@H](NC(=O)Cc1cc(F)cc(F)c1)C(=O)N[C@H]1N=C(c2ccccc2)c2ccccc2N(C)C1=O` [Compound E], the “cell-free generation of AICD, NICD and p75-ICD” value in the experiment with γ-secretase [3] is “Very low amounts; also recorded: efficiently inhibited”.
As for `CC1(C)CCC[C@](C)([C@H]2CC[C@]3(C)[C@@H]2[C@H](O)C[C@@H]2[C@@]4(C)CC[C@H](O)C(C)(C)[C@@H]4CC[C@]23C)O1` [PD, 20(S)-panaxadiol], in experiment [2], the “inhibitory effects on Aβ40 or Aβ42 generation” value is listed as “did not confer any inhibitory effects”.
Turning to `CC(C)=CCC[C@](C)(O)[C@H]1CC[C@]2(C)[C@@H]1[C@H](O)C[C@@H]1[C@@]3(C)CC[C@H](O)C(C)(C)[C@@H]3[C@@H](O)C[C@]12C` [PPT, Protopanaxatiol], the Aβ42-lowering activity result in experiment [1] is listed as “Yes”. Further, in experiment [2], the “levels of Aβ42” value is on record as “without affecting” and the “production of Aβ42” value is “reduced”.
For the compound `CC1(C)CCC[C@](C)([C@H]2CC[C@]3(C)[C@@H]2[C@H](O)C[C@@H]2[C@@]4(C)CC[C@H](O)C(C)(C)[C@@H]4[C@@H](O)C[C@]23C)O1` [PT, 20(S)-panaxatriol], in experiment [2], the “levels of Aβ42” value is “without affecting” and the “production of Aβ42” value is on record as “reduced”.
Take `CC(C)=CCC[C@](C)(O[C@@H]1O[C@H](CO[C@@H]2O[C@H](CO)[C@@H](O)[C@H](O)[C@H]2O)[C@@H](O)[C@H](O)[C@H]1O)[C@H]1CC[C@]2(C)[C@@H]1[C@H](O)C[C@@H]1[C@@]3(C)CC[C@H](O[C@@H]4O[C@H](CO)[C@@H](O)[C@H](O)[C@H]4O[C@@H]4O[C@H](CO)[C@@H](O)[C@H](O)[C@H]4O)C(C)(C)[C@@H]3CC[C@]12C` [Rb1]: in experiment [1], the “inhibitory effects on Aβ40 and Aβ42 production” value is listed as “None”; the Aβ42-lowering activity result is “No”.
The matching figures for `CC(C)=CCC[C@](C)(O[C@@H]1O[C@H](CO[C@@H]2OC[C@H](O)[C@H](O)[C@H]2O)[C@@H](O)[C@H](O)[C@H]1O)[C@H]1CC[C@]2(C)[C@@H]1[C@H](O)C[C@@H]1[C@@]3(C)CC[C@H](O[C@@H]4O[C@H](CO)[C@@H](O)[C@H](O)[C@H]4O[C@@H]4O[C@H](CO)[C@@H](O)[C@H](O)[C@H]4O)C(C)(C)[C@@H]3CC[C@]12C` [Rb2]: “None” and “No”.
For `CC(C)=CCC[C@](C)(O[C@@H]1O[C@H](CO[C@@H]2OC[C@@H](O)[C@H](O)[C@H]2O)[C@@H](O)[C@H](O)[C@H]1O)[C@H]1CC[C@]2(C)[C@@H]1[C@H](O)C[C@@H]1[C@@]3(C)CC[C@H](O[C@@H]4O[C@H](CO)[C@@H](O)[C@H](O)[C@H]4O[C@@H]4O[C@H](CO)[C@@H](O)[C@H](O)[C@H]4O)C(C)(C)[C@@H]3CC[C@]12C` [Rb3], in experiment [1], the Aβ42-lowering activity result is given as “No”.
With `CC(C)=CCC[C@](C)(O[C@@H]1O[C@H](CO)[C@@H](O)[C@H](O)[C@H]1O)[C@H]1CC[C@]2(C)[C@@H]1[C@H](O)C[C@@H]1[C@@]3(C)CC[C@H](O)C(C)(C)[C@@H]3[C@@H](O[C@@H]3O[C@H](CO)[C@@H](O)[C@H](O)[C@H]3O)C[C@]12C` [Rg1], in experiment [1], the “inhibitory effects on Aβ40 and Aβ42 production” value is “None”; the Aβ42-lowering activity result is recorded as “No”. The “production of Aβ42 in cells (summary statement)” value in experiment [1] (mammalian cells, in vitro) is on record as “no amyloid reducing activity in vitro”.
`C=C(CCC=C(C)C)[C@H]1CC[C@]2(C)[C@@H]1[C@H](O)C[C@@H]1[C@@]3(C)CC[C@H](O)C(C)(C)[C@@H]3[C@@H](O[C@@H]3O[C@H](CO)[C@@H](O)[C@H](O)[C@H]3O)C[C@]12C` [Rk3]: in experiment [1], the Aβ42-lowering activity result is on record as “No”.
As for `COc1ccc2cc([C@H](C)C(=O)O)ccc2c1` [naproxen, reference compound], in the experiment on γ-secretase [4], the “Aβ42 generation in vitro” value was “no effects”.
For `CSc1ccc(/C=C2/C(C)=C(CC(=O)O)c3cc(F)ccc32)cc1` [sulindac sulfide, reference compound], the Aβ40 production entry in experiment [1] (overnight treatment, CHO-APP cells) is recorded as “slightly affected”. Moreover, the “Aβ42 generation in vitro” value with γ-secretase [4] is on record as “potently inhibited”. The results for the “cell-free generation of AICD, NICD and p75-ICD” value with γ-secretase [3] and in the experiment on γ-secretase [3] (listed as sulinac sulfide) were “abundantly produced” and “did not affect”, respectively.
